Experimental data from patent publication US9597407B2, “Targeted antimicrobial moieties” (C3 Jian, Inc., priority 2009, dated 2017).
Entries after “also recorded” stand apart in the source; their conditions may differ.

Tested on: bacteria
Assay: Binding of targeting peptides to microorganisms (Table 3)
Conditions: data not shown

Row | Substance | bacterial binding
1 | DAANEA-GGG [BL-1] | no bacterial binding

Same assay, conditions: microorganism bound by the targeting peptide; binding in aqueous buffers chosen by peptide solubility, preferably 1x PBS

Row | Substance | Target(s)
2 | PF-325 (LTIDEKLRNHR; Peptide with targeting and/or antimicrobial activity) | S. mutans; also recorded: E. coli
3 | PF-282 (QNNDTSAWCGSAHKNGNS; Peptide with targeting and/or antimicrobial activity) | S. mutans
4 | PF-384 (HISKERFEAY; Peptide with targeting and/or antimicrobial activity) | E. faecalis; also recorded: C. jeikeium; also recorded: C. jejuni
5 | PF-151 (EEYPARVPLSGEDVTEARRH; Peptide with targeting and/or antimicrobial activity) | S. epidermidis and MRSA and E. faecalis and C. jeikeium
6 | PF-352 (RVKKIG; Peptide with targeting and/or antimicrobial activity) | C. jeikeium
7 | PF-329 (IGILFDKSVRKY; Peptide with targeting and/or antimicrobial activity) | S. epidermidis
8 | PF-334 (QQYLILDRM; Peptide with targeting and/or antimicrobial activity) | S. epidermidis; also recorded: C. difficile
9 | PF-361 (NQVTEGIRLLVE; Peptide with targeting and/or antimicrobial activity) | S. epidermidis; also recorded: E. coli; also recorded: E. faecalis; also recorded: C. jejuni
10 | PF-183 (KPGISVENRQ; Peptide with targeting and/or antimicrobial activity) | S. epidermidis and M. luteus and E. coli and C. albicans and MRSA and E. faecalis and C. jeikeium
11 | AIEGVIKKGACFKLLRHEMF [PF-167] | S. epidermidis and E. coli and C. albicans and MRSA and C. jeikeium and C. jejuni
12 | PF-162 (GIRRLHSVENLNREISHRMAGLR; Peptide with targeting and/or antimicrobial activity) | S. epidermidis and MRSA

Same assay, conditions: microorganism the targeting peptide binds; binding in aqueous buffers that varied with peptide solubility, preferably 1x PBS

Row | Substance | Target(s)
13 | PF-060 (HSSHL; Peptide with targeting and/or antimicrobial activity) | E. coli; also recorded: C. albicans; also recorded: C. jeikeium
14 | PF-047 (NQEPSLQQDKEQKDNKG; Peptide with targeting and/or antimicrobial activity) | S. mutans
15 | 1T-289 (EPSADIYLSAKDTKT; Peptide with targeting and/or antimicrobial activity) [Peptide 1T-289] | F. nucleatum; also recorded: P. gingivalis; also recorded: S. gordonii; also recorded: S. mitis; also recorded: S. mutans; also recorded: S. oralis; also recorded: S. sanguinis
16 | PF-050 (SYYLKRREEKGK; Peptide with targeting and/or antimicrobial activity) | S. epidermidis; also recorded: M. luteus; also recorded: E. coli; also recorded: C. jeikeium
17 | TT-310 (TKLKKNNKLLSAKKENTLHTKDK; Peptide with targeting and/or antimicrobial activity) | F. nucleatum
18 | 1T-288 (RWVGGEPSADIYLSAKDTKT; Peptide with targeting and/or antimicrobial activity) [Peptide 1T-288] | F. nucleatum; also recorded: S. gordonii; also recorded: S. salivarious; also recorded: S. sanguinis
19 | 1T-269 (PLYVAAVEKINTAKKH; Peptide with targeting and/or antimicrobial activity) [Peptide 1T-269] | F. nucleatum; also recorded: S. mutans; also recorded: S. oralis; also recorded: S. sanguinis

Same assay, conditions: peptide binding in aqueous buffers that varied depending on peptide solubility; preferably 1x PBS

Row | Substance | Target(s) (microorganism bound by the targeting peptide) | Target(s) (microorganisms bound by the targeting peptide)
20 | PF-772 (TKESSS; Peptide with targeting and/or antimicrobial activity) | S. epidermidis and C. albicans and MRSA and S. pneumoniae and C. jeikeium | –
21 | PF-500 (MGIFKEEKIKFIDCKGEEVILKIKIKDIKK; Peptide with targeting and/or antimicrobial activity) | – | S. mutans; also recorded: E. coli
22 | PF-C045 (FREGMGWPLSNEGSPTAPLPKHRNQV; Peptide with targeting and/or antimicrobial activity) | A. naeslundii; also recorded: T. denticola | –
23 | PF-792 (ALHASGIQAI; Peptide with targeting and/or antimicrobial activity) | S. mutans | –
24 | PF-791 (IFLTTQNTDYSEHNAA; Peptide with targeting and/or antimicrobial activity) | S. mutans | –
25 | PF-568 (TQAVQVKTAQAQQQ; Peptide with targeting and/or antimicrobial activity) | – | S. epidermidis
26 | PF-492 (IQIDAASFYSISKSTIK; Peptide with targeting and/or antimicrobial activity) | – | S. mutans; also recorded: B. subtilis; also recorded: E. coli

Same assay, conditions: peptide binding in aqueous buffers varied by peptide solubility; preferably 1x PBS

Row | Substance | Target(s) (microorganism bound by the targeting peptide)
27 | 1T-37 (YIVGALVILAVAGLIYSMLRKA; Peptide with targeting and/or antimicrobial activity) [Peptide 1T-37] | S. mutans; also recorded: S. aereus; also recorded: S. epidermidis; also recorded: C. jeikeium; also recorded: C. xerosis; also recorded: C. striatum; also recorded: P. aeruginosa
28 | 1T-47 (VIKISVPGQVQMLIP; Peptide with targeting and/or antimicrobial activity) [Peptide 1T-47] | S. mutans; also recorded: S. epidermidis; also recorded: P. aeruginosa
29 | 1T-38 (VMFVLTRGRSPRPMIPAY; Peptide with targeting and/or antimicrobial activity) [Peptide 1T-38] | S. mutans; also recorded: S. aereus; also recorded: S. epidermidis; also recorded: C. jeikeium; also recorded: C. xerosis; also recorded: C. striatum; also recorded: P. aeruginosa
30 | 1T-76 (EMRLSKFFRDFILWRKK; Peptide with targeting and/or antimicrobial activity) [Peptide 1T-76] | S. pneumoniae
31 | 1T-125 (DAITGGNPPLSDTDGLRP; Peptide with targeting and/or antimicrobial activity) [Peptide 1T-125] | S. epidermidis; also recorded: S. gordonii; also recorded: S. mutans; also recorded: S. oralis
32 | 1T-108 (WGPLGPERPLW; Peptide with targeting and/or antimicrobial activity) [Peptide 1T-108] | S. gordonii; also recorded: S. mitis; also recorded: S. mutans; also recorded: S. oralis; also recorded: S. salivarious; also recorded: S. sanguinis
33 | 1T-113 (HGAHQRTGQRLHHHRGRTVSGCRQNPVAGVDPDEHR; Peptide with targeting and/or antimicrobial activity) [Peptide 1T-113] | S. mitis
34 | 1T-90 (RNVIGQVL; Peptide with targeting and/or antimicrobial activity) [Peptide 1T-90] | S. gordonii; also recorded: S. mitis; also recorded: S. mutans; also recorded: S. oralis; also recorded: S. sanguinis
35 | 1T-95 (GHLLRVGGRVGGVGGVAGACAQPFGGQ; Peptide with targeting and/or antimicrobial activity) [Peptide 1T-95] | S. gordonii; also recorded: S. mitis; also recorded: S. mutans; also recorded: S. oralis; also recorded: S. sanguinis
